The values below come from US9655362B2, “Fungicidal composition and method for controlling plant diseases” (ISHIHARA SANGYO KAISHA, LTD., priority 2003, dated 2017).

Values joined by “and” are separate entries in the source; they are usually repeats but may differ in a detail not shown here. Equal entries are not always repeated.

For one data set, the system named is Erysiphe graminis. Kind of data set: Test on preventive effect against wheat powdery mildew. The format is in vivo. On the set-up: key: % = treated/untreated average lesion area ×100. As to the method: Wheat (cultivar: […] After the chemical solution dried, conidia of Erysiphe graminis were dusted and inoculated and maintained in a constant temperature chamber at 20° C. […] The average lesion area in the non-treated plot was determined in the same manner as for the treated plot except that water was applied by a spray gun instead of the chemical solution. Disease rate=(a/b)×100 a: average lesion area in the treated plot b: average lesion area in the non-treated plot Theoretical values were calculated in accordance with the Colby's formula. The fungicidal composition of the present invention has a synergistic effect regarding the test on preventive effect against wheat powdery mildew, when the experimental value is lower than the theoretical value.

The next data set concerns Sphaerotheca cucurbitae. Description: Test on preventive effect against cucumber powdery mildew. The format is in vivo. Also on record: scale not given here. Here is the method:
Cucumber (cultivar: Suyo) was cultivated in a plastic pot having a diameter of 7.5 cm, and when it reached 1.5-leaf stage, 10 ml of a chemical solution having the compound of the present invention adjusted to a prescribed concentration, was applied by a spray gun. After the chemical solution dried, a suspension of conidia of Sphaerotheca cucurbitae was sprayed and inoculated and maintained in a constant temperature chamber at 20° C. From 6 to 11 days after the inoculation, the area of sporulation was investigated, and the disease rate was determined in the same manner as in Test Example 3, and the results are shown in Tables 54 to 96. The average lesion area in the non-treated plot was determined in the same manner as for the treated plot except that water was applied by a spray gun instead of the chemical solution.
Further, theoretical values by the Colby's formula are shown in brackets in Tables 54 to 96.

[1] abbreviates: other fungicide alone, dose 1.6 g/ha.
[2] abbreviates: other fungicide alone, concentration 31 ppm.
Where [3] appears, read: other fungicide alone, concentration 63 ppm.
[4] abbreviates: Compound No. alone, concentration 16 ppm.
Where [5] appears, read: single agent, 4 ppm, area of sporulation 6 to 11 days after inoculation.
[6] abbreviates: single agent, 8 ppm, area of sporulation 6 to 11 days after inoculation.
[7] abbreviates: single agent, 1 ppm, area of sporulation 6 to 11 days after inoculation.
Where [8] appears, read: single agent, 2 ppm, area of sporulation 6 to 11 days after inoculation.
[9] abbreviates: other fungicide alone, dose 12.5 g/ha.
Where [10] appears, read: other fungicide alone, concentration 8 ppm.
[11] abbreviates: other fungicide alone, concentration 4 ppm.
[12] abbreviates: other fungicide alone, concentration 16 ppm.
Where [13] appears, read: other fungicide alone, dose 3.1 g/ha.
Setting [14] is: other fungicide alone, dose 6.3 g/ha.
The mark [15] stands for this setting: other fungicide alone, concentration 2 ppm.

As to `Fc1ccc([C@]2(Cn3cncn3)O[C@H]2c2ccccc2Cl)cc1` (racemic) [Epoxiconazole], the Disease rate with Erysiphe graminis (setting [1]) was 100.
For the molecule `CO/C=C(/C(=O)OC)c1ccccc1Oc1cc(Oc2ccccc2C#N)ncn1` [Azoxystrobin], the Disease rate with Sphaerotheca cucurbitae (setting [2]) is 100 and 80.4; in the data set with Sphaerotheca cucurbitae (setting [3]), 100; in the data set with Sphaerotheca cucurbitae (other fungicide alone, concentration 125 ppm), 100.
Regarding `COc1cc(C)c(C(=O)c2c(F)ncc(C)c2I)c(OC)c1OC` [Compound No. 18, 3-(2,3,4-trimethoxy-6-methylbenzoyl)-2-fluoro-4-iodo-5-methylpyridine], the melting point is 140 to 141 °C.
`COc1cc(C)c(C(=O)c2c(OC)ncc(Br)c2Cl)c(OC)c1OC` [Compound No. 23, 3-(2,3,4-trimethoxy-6-methylbenzoyl)-5-bromo-4-chloro-2-methoxypyridine] had a melting point of 84 to 87 °C. The molecule also displayed a Disease rate in the data set with Sphaerotheca cucurbitae (Compound No. alone, concentration 2 ppm) of 100. Also, in the data set with Sphaerotheca cucurbitae (setting [4]), the Disease rate is listed as 30.7. For the same molecule, in the data set on Sphaerotheca cucurbitae (setting [5]), the Disease rate was 79.2. The Disease rate in the data set on Sphaerotheca cucurbitae (setting [6]) is reported as 19.8. For the same molecule, the Disease rate with Sphaerotheca cucurbitae (single agent, 16 ppm, area of sporulation 6 to 11 days after inoculation) stood at 2.4.
Regarding `COc1cc(C)c(C(=O)c2c(OC)ncc(Cl)c2C)c(OC)c1OC` [Compound No. 35, 3-(2,3,4-trimethoxy-6-methylbenzoyl)-5-chloro-2-methoxy-4-methylpyridine], the Disease rate in the data set on Sphaerotheca cucurbitae (setting [4]) was 80.4; with Sphaerotheca cucurbitae (setting [7]) it was 56.8; in the data set with Sphaerotheca cucurbitae (setting [8]) it was 14.2.
`COc1cc(C)c(C(=O)c2c(Cl)cnc(Cl)c2C(F)(F)F)c(OC)c1OC` [Compound No. 39, 4-(2,3,4-trimethoxy-6-methylbenzoyl)-2,5-dichloro-3-trifluoromethylpyridine] yielded a melting point of 106 to 109 °C. Further, the Disease rate with Erysiphe graminis (Compound No. alone, dose 1.6 g/ha) is 58.8. Besides, in the data set on Sphaerotheca cucurbitae (setting [4]), the Disease rate is listed as 20. Besides, the Disease rate with Sphaerotheca cucurbitae (setting [5]) is reported as 32.0. Besides, the Disease rate with Sphaerotheca cucurbitae (setting [6]) stood at 14.2.
Consider `COc1cc(C)c(C(=O)c2c(OC)cnc(Cl)c2C(F)(F)F)c(OC)c1OC` [Compound No. 40, 4-(2,3,4-trimethoxy-6-methylbenzoyl)-2-chloro-3-trifluoromethyl-5-methoxypyridine], for which the melting point fell in the range of 117 to 119 °C. Besides, the Disease rate in the data set on Sphaerotheca cucurbitae (setting [7]) was 71.0. This molecule also returned a Disease rate with Sphaerotheca cucurbitae (setting [8]) of 42.6.
Molecule `COc1cc(C)c(C(=O)c2c(OC)cncc2C(F)(F)F)c(OC)c1OC` [Compound No. 122, 4-(2,3,4-trimethoxy-6-methylbenzoyl)-3-methoxy-5-trifluoromethylpyridine] yielded a melting point of 103 to 106 °C.
For the molecule `Cc1ccc(-c2c(Cl)nc(C#N)n2S(=O)(=O)N(C)C)cc1` [Cyazofamid], the Disease rate in the data set on Sphaerotheca cucurbitae (setting [2]) and with Sphaerotheca cucurbitae (setting [3]) was 100 in each case.
As for `CC(C1CC1)C(O)(Cn1cncn1)c1ccc(Cl)cc1` (centres unmarked) [Cyproconazole], in the data set on Erysiphe graminis (setting [9]), the Disease rate was 15.0.
`CC(Cc1ccc(C(C)(C)C)cc1)CN1C[C@@H](C)O[C@@H](C)C1` (some centres unmarked) [Fenpropimorph]: the Disease rate in the data set with Erysiphe graminis (other fungicide alone, dose 25 g/ha) is reported as 100.
With `O=c1c2cc(F)ccc2nc(-n2cncn2)n1-c1ccc(Cl)cc1Cl` [Fluquinconazole], the Disease rate with Erysiphe graminis (other fungicide alone, dose 50 g/ha) came out at 30.0; in the data set on Erysiphe graminis (other fungicide alone, dose 200 g/ha), 7.5; in the data set on Erysiphe graminis (other fungicide alone, dose 400 g/ha) it was 2.5.
In turn, `Clc1ccc(CSC(Cn2cncn2)=Nc2ccc(Cl)cc2Cl)cc1` [Imibenconazole] returned a Disease rate in the data set on Sphaerotheca cucurbitae (setting [10]) of 100.
In the case of `CCCCCCCCCCCCc1ccc(S(=O)(=O)O)cc1.CCCCCCCCCCCCc1ccc(S(=O)(=O)O)cc1.CCCCCCCCCCCCc1ccc(S(=O)(=O)O)cc1.NC(N)=NCCCCCCCCNCCCCCCCCN=C(N)N` [Iminoctadine albesilate], the Disease rate in the data set on Sphaerotheca cucurbitae (setting [11]) was 85.9 and 93.8; with Sphaerotheca cucurbitae (setting [10]), 83.9 and 60.7 and 45.0; in the data set on Sphaerotheca cucurbitae (setting [12]), 35.3 and 30.0 and 49.4.
The molecule `CC#Cc1cc(C)nc(Nc2ccccc2)n1` [Mepanipyrim] showed a Disease rate in the data set on Sphaerotheca cucurbitae (setting [10]) of 100.
For the molecule `CC1(C)CCC(Cc2ccc(Cl)cc2)C1(O)Cn1cncn1` (centres unmarked) [Metconazole], the Disease rate in the data set with Erysiphe graminis (setting [1]) came to 44.1; in the data set with Erysiphe graminis (setting [13]), 19.6; in the data set on Erysiphe graminis (setting [14]) it was 4.9.
Take `COc1cc(C)c(C(=O)c2c(OC)ccc(Br)c2C)c(OC)c1OC` [Metrafenone]: the results for the Disease rate with Erysiphe graminis (setting [13]), in the data set with Erysiphe graminis (setting [14]) and in the data set on Erysiphe graminis (setting [9]) were 100, 80.0 and 60.0, respectively.
Regarding `CC1(C)COC(C)(CCCc2ccc(Cl)cc2)N1C(=O)n1ccnc1.CC1(C)COC(C)(CCCc2ccc(Cl)cc2)N1C(=O)n1ccnc1.O=C(O)/C=C/C(=O)O` (centres unmarked) [Oxpoconazole fumarate], the Disease rate in the data set on Sphaerotheca cucurbitae (setting [10]) is 100 and 80.0; in the data set on Sphaerotheca cucurbitae (setting [12]) it was 100 and 60.0; in the data set with Sphaerotheca cucurbitae (setting [2]), 45.5 and 30.0.
The molecule `CC1(C)COC(C)(CCCc2ccc(Cl)cc2)N1C(=O)n1ccnc1` (centres unmarked) [Oxpoconazole] returned a Disease rate in the data set on Sphaerotheca cucurbitae (setting [6]) of 44.5.
`CCCC1COC(Cn2cncn2)(c2ccc(Cl)cc2Cl)O1` (centres unmarked) [Propiconazole]: the Disease rate in the data set on Erysiphe graminis (setting [13]) was 100; in the data set on Erysiphe graminis (setting [9]) it was 11.6.
For the molecule `CC(C)(C)C(O)(CCc1ccc(Cl)cc1)Cn1cncn1` (centres unmarked) [Tebuconazole], the Disease rate was found to be 56.8 in the data set on Sphaerotheca cucurbitae (setting [15]) and 71.0 with Sphaerotheca cucurbitae (setting [11]).
On to `FC(F)C(F)(F)OCC(Cn1cncn1)c1ccc(Cl)cc1Cl` (centres unmarked) [Tetraconazole], for which the Disease rate in the data set on Erysiphe graminis (setting [13]) is 80.0; with Erysiphe graminis (setting [14]), 35.0; with Sphaerotheca cucurbitae (setting [15]), 56.8; with Sphaerotheca cucurbitae (setting [11]), 56.8.
For `CC(C)(C)C(O)C(Oc1ccc(Cl)cc1)n1cncn1` (centres unmarked) [Triadimenol], the Disease rate in the data set on Erysiphe graminis (setting [13]) came out at 65; with Erysiphe graminis (setting [9]), 19.0.
On to Polyoxins, for which, in the data set with Sphaerotheca cucurbitae (setting [2]), the Disease rate was 100 and 80.4 and 80.0.
